Data taken from PubChem BioAssay AID248 (DTP/NCI, 2004).
Inconclusive results and toxic doses are left out. Cut-off read from the data, not from the text of the source: active = T/C of 150% or more; inactive = T/C below 125%. Square brackets hold non-standard residues; d marks the D form. Peptide text beside a SMILES is read from it. * marks the point of attachment. ξ: configuration not given here. Tos = Cc1ccc(S(=O)(=O)*)cc1; ξY = NC(Cc1ccc(O)cc1)C(=O)O

Test system: L1210 leukemia ip in BDF1 mice, survival T/C
Assay: NCI In Vivo Anticancer Drug Screen. Data for tumor model L1210 Leukemia (intraperitoneal) in B6D2F1 (BDF1) mice
Settings: endpoint: mean survival time, higher = longer survival
Outline: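 Each compound was tested against a transplantable tumor grown in mice. The endpoint was survival, with treated animals benchmarked against vehicle controls as a simple ratio.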

[1] = dose: 100.0 mg/kg/injection, schedule: Q01DX001 (ip), vehicle: carboxymethylcellulose (CMC)
[2] = dose: 200.0 mg/kg/injection, schedule: Q01DX001 (ip), vehicle: carboxymethylcellulose (CMC)
[3] = dose: 400.0 mg/kg/injection, schedule: Q01DX001 (ip), vehicle: carboxymethylcellulose (CMC)
[4] = dose: 100.0 mg/kg/injection, schedule: Q01DX009 (ip), vehicle: saline with Tween-80
[5] = dose: 200.0 mg/kg/injection, schedule: Q01DX009 (ip), vehicle: saline with Tween-80
[6] = dose: 100.0 mg/kg/injection, schedule: Q01DX009 (ip), vehicle: Klucel (hydroxypropylcellulose) (HPC)
[7] = dose: 200.0 mg/kg/injection, schedule: Q01DX009 (ip), vehicle: Klucel (hydroxypropylcellulose) (HPC)
[8] = dose: 400.0 mg/kg/injection, schedule: Q01DX009 (ip), vehicle: Klucel (hydroxypropylcellulose) (HPC)
[9] = dose: 100.0 mg/kg/injection, schedule: Q01DX001 (ip), vehicle: saline
[10] = dose: 200.0 mg/kg/injection, schedule: Q01DX001 (ip), vehicle: saline
[11] = dose: 400.0 mg/kg/injection, schedule: Q01DX001 (ip), vehicle: saline
[12] = dose: 100.0 mg/kg/injection, schedule: Q04DX003 (ip), vehicle: saline with Tween-80
[13] = dose: 100.0 mg/kg/injection, schedule: Q04DX003 (ip), vehicle: Klucel (hydroxypropylcellulose) (HPC)
[14] = dose: 200.0 mg/kg/injection, schedule: Q04DX003 (ip), vehicle: Klucel (hydroxypropylcellulose) (HPC)
[15] = dose: 400.0 mg/kg/injection, schedule: Q04DX003 (ip), vehicle: Klucel (hydroxypropylcellulose) (HPC)

Measured: T/C

O=c1[nH]c(=O)c2n[nH]nc2[nH]1
inactive: dose: 1.0 mg/kg/injection, schedule: Q01DX009 (ip), vehicle: saline 103 % of control | dose: 2.0 mg/kg/injection, schedule: Q01DX009 (ip), vehicle: saline 93 % of control | dose: 4.0 mg/kg/injection, schedule: Q01DX009 (ip), vehicle: saline 95 % of control | dose: 8.0 mg/kg/injection, schedule: Q01DX009 (ip), vehicle: saline 103 % of control | dose: 16.0 mg/kg/injection, schedule: Q01DX009 (ip), vehicle: saline 101 % of control | dose: 16.0 mg/kg/injection, schedule: Q01DX015 (ip), vehicle: carboxymethylcellulose (CMC) 88 % of control | dose: 75.0 mg/kg/injection, schedule: Q01DX009 (ip), vehicle: saline 110 % of control | [1] 96 % of control | dose: 115.0 mg/kg/injection, schedule: Q01DX009 (ip), vehicle: saline 107 % of control | dose: 125.0 mg/kg/injection, schedule: Q01DX015 (ip), vehicle: carboxymethylcellulose (CMC) 92 % of control | dose: 170.0 mg/kg/injection, schedule: Q01DX009 (ip), vehicle: saline 98 % of control | [2] 102 % of control | dose: 255.0 mg/kg/injection, schedule: Q01DX009 (ip), vehicle: saline 97 % of control | dose: 385.0 mg/kg/injection, schedule: Q01DX009 (ip), vehicle: saline 105 % of control | [3] 91 % of control

CSc1ccc(OC(=O)Oc2ccc(SC)cc2)cc1
inactive: [1] 97 % of control | [2] 95 % of control | [3] 92 % of control

CCNc1cc(Cl)c(C(=O)O)cc1[N+](=O)[O-]
inactive: dose: 100.0 mg/kg/injection, schedule: Q01DX009 (ip), vehicle: saline 116 % of control | dose: 200.0 mg/kg/injection, schedule: Q01DX009 (ip), vehicle: saline 103 % of control | dose: 400.0 mg/kg/injection, schedule: Q01DX009 (ip), vehicle: saline 95 % of control

CCCCCCC(O)/C=C/c1ccc(Cl)cc1 (stereo not drawn)
inactive: [4] 94 % of control | [5] 91 % of control

O=C(Nc1cccc(F)c1)Nc1cccc([N+](=O)[O-])c1
inactive: [6] 102 % of control | [7] 102 % of control | [8] 97 % of control

Clc1ccccc1/C=N/N1CCN(/N=C/c2ccccc2Cl)CC1
inactive: [9] 97 % of control | [10] 95 % of control | [11] 101 % of control

COC(OC)c1nc(SC)[nH]c(=O)c1C[N+](C)(C)C
inactive: [4] 102 % of control | [12] 96 % of control | [5] 92 % of control | dose: 200.0 mg/kg/injection, schedule: Q04DX003 (ip), vehicle: saline with Tween-80 94 % of control | dose: 400.0 mg/kg/injection, schedule: Q04DX003 (ip), vehicle: saline with Tween-80 91 % of control

CCCC(C)C(=O)c1ccccc1 (stereo not drawn)
inactive: [6] 96 % of control | [13] 103 % of control | [7] 93 % of control | [14] 110 % of control | [8] 96 % of control | [15] 108 % of control

O=C(CCC(C(=O)c1ccccc1)c1ccccc1)c1ccccc1 (stereo not drawn)
inactive: [4] 104 % of control | [5] 87 % of control | dose: 400.0 mg/kg/injection, schedule: Q01DX009 (ip), vehicle: saline with Tween-80 88 % of control

CCOC(=O)c1cnc(SC)nc1N1CCOCC1
inactive: [13] 98 % of control | [14] 93 % of control | [15] 100 % of control

Nc1ccn(C2SC(CO)C(O)C2O)c(=O)n1 (stereo not drawn)
inactive: dose: 50.0 mg/kg/injection, schedule: Q01DX001 (ip), vehicle: saline 100 % of control | [9] 105 % of control | [10] 100 % of control | [11] 92 % of control

C#CC1(O)CCCC(C)C1 (stereo not drawn)
inactive: [4] 102 % of control | [5] 97 % of control

O=S(=O)(/C(=C\c1ccccc1)c1ccccc1)c1ccccc1
inactive: [9] 90 % of control | [10] 93 % of control | [11] 93 % of control

O=C(NC(CSC(c1ccccc1)(c1ccccc1)c1ccccc1)C(=O)O)OCc1ccccc1 (stereo not drawn)
inactive: dose: 100.0 mg/kg/injection, schedule: Q04DX003 (ip), vehicle: saline 105 % of control | dose: 200.0 mg/kg/injection, schedule: Q04DX003 (ip), vehicle: saline 100 % of control | dose: 400.0 mg/kg/injection, schedule: Q04DX003 (ip), vehicle: saline 105 % of control

OC(c1ccccc1)(c1ccccc1)C1CCC1
inactive: dose: 50.0 mg/kg/injection, schedule: Q01DX009 (ip), vehicle: Klucel (hydroxypropylcellulose) (HPC) 100 % of control | dose: 75.0 mg/kg/injection, schedule: Q01DX001 (ip), vehicle: Klucel (hydroxypropylcellulose) (HPC) 95 % of control | [6] 94 % of control | dose: 150.0 mg/kg/injection, schedule: Q01DX001 (ip), vehicle: Klucel (hydroxypropylcellulose) (HPC) 101 % of control | dose: 300.0 mg/kg/injection, schedule: Q01DX001 (ip), vehicle: Klucel (hydroxypropylcellulose) (HPC) 98 % of control

COc1ccc2c(c1OC(C)=O)-c1cc(O)cc3c1C(C2)N(C(=O)CN(CCO)CCO)CC3 (stereo not drawn)
inactive: dose: 25.0 mg/kg/injection, schedule: Q04DX003 (ip), vehicle: DMSO 104 % of control | dose: 50.0 mg/kg/injection, schedule: Q04DX003 (ip), vehicle: DMSO 93 % of control | dose: 100.0 mg/kg/injection, schedule: Q04DX003 (ip), vehicle: DMSO 89 % of control | dose: 200.0 mg/kg/injection, schedule: Q04DX003 (ip), vehicle: DMSO 104 % of control | dose: 400.0 mg/kg/injection, schedule: Q04DX003 (ip), vehicle: DMSO 97 % of control

Cc1ccc[n+](CCc2c[nH]c3ccccc23)c1
inactive: [12] 90 % of control

O=C(/C=C/c1cccc([N+](=O)[O-])c1)NCCBr
inactive: [6] 101 % of control | [13] 95 % of control | [7] 101 % of control | [14] 97 % of control | [15] 95 % of control

COC1OC(CBr)C(OC(=O)c2ccccc2)C(OC(=O)c2ccccc2)C1OC(=O)c1ccccc1 (stereo not drawn)
inactive: dose: 100.0 mg/kg/injection, schedule: Q04DX002 (ip), vehicle: Klucel (hydroxypropylcellulose) (HPC) 101 % of control | dose: 200.0 mg/kg/injection, schedule: Q04DX002 (ip), vehicle: Klucel (hydroxypropylcellulose) (HPC) 96 % of control | dose: 400.0 mg/kg/injection, schedule: Q04DX002 (ip), vehicle: Klucel (hydroxypropylcellulose) (HPC) 90 % of control

Cc1ccc(S(=O)(=O)NCC(=O)NC(Cc2ccc(O)cc2)C(=O)O)cc1 (stereo not drawn) (Tos-Gly-[ξY]-OH)
inactive: dose: 100.0 mg/kg/injection, schedule: Q01DX009 (ip), vehicle: other 105 % of control | dose: 200.0 mg/kg/injection, schedule: Q01DX009 (ip), vehicle: other 102 % of control | dose: 400.0 mg/kg/injection, schedule: Q01DX009 (ip), vehicle: other 104 % of control

CS(=O)(=O)OC[C@@H](O)[C@@H](O)COS(C)(=O)=O
inactive: dose: 100.0 mg/kg/injection, schedule: Q01DX009 (ip), vehicle: saline sonified 101 % of control | dose: 200.0 mg/kg/injection, schedule: Q01DX009 (ip), vehicle: saline sonified 98 % of control | dose: 400.0 mg/kg/injection, schedule: Q01DX009 (ip), vehicle: saline sonified 103 % of control
